According to patent EP4763839A1 (Pamplona Therapeutics (Shenzhen) Co., Ltd., priority 2023, dated 2025):
Read-outs that look alike come from different tables or passages of the source.

Molecular target: T1, IRAK4 (Homo sapiens, UniProt Q9NWZ3)
T1 sequence (Q9NWZ3 1-460): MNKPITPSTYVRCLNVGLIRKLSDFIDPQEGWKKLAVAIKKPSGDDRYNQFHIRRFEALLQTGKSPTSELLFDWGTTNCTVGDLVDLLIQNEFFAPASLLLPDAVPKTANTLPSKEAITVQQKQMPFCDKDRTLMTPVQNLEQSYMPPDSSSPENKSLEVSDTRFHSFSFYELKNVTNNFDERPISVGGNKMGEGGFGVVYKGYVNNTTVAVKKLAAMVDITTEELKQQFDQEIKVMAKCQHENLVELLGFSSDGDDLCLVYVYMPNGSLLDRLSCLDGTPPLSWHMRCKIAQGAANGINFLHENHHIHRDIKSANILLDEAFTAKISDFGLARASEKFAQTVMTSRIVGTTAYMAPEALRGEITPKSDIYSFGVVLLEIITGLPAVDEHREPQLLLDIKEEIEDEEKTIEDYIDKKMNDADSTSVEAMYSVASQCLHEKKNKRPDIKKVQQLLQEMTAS
Assay: Assay for inhibitory effect of compound on IRAK4 kinase activity (KinEASE-STK S1 HTRF kit)
Format: biochemical
Procedure: Example 1: Kinase activity assay
Assay for inhibitory effect of compound on IRAK4 kinase activity
The inhibitory effect of the compound on IRAK4 kinase activity was measured using the KinEASE-STK S1 serine/threonine kinase kit (Cisbio). The specific method was as follows: the compound was dissolved in dimethyl sulfoxide and then subjected to 3-fold serial dilution in dimethyl sulfoxide, yielding final test compound concentrations in the reaction system ranging from 5,000 nM to 0.0254 nM. The kinase at a final concentration of 8 nM was added, followed by incubation at rt for 15 minutes. Subsequently, biotinylated STK1 substrate at a final concentration of 400 nM and adenosine triphosphate (ATP) at a final concentration of 80 µM were sequentially added, and the mixture was incubated at 37°C for 90 minutes. Then, the reaction was terminated by adding an anti-phosphoserine/threonine antibody conjugated with a europium cryptate and streptavidin-conjugated XL665 to the reaction system. After incubation at rt for 1 hour, the fluorescence intensity at emission wavelengths of 620 nm and 665 nm for each well was measured using an EnVision microplate reader (PerkinElmer) in HTRF mode. The ratio value was calculated using the formula: Ratio = (665 nm/620 nm)×10^4 The inhibition rate of the compound at each concentration was calculated using the formula: Inhibition% = [1-(Signal sample-Signal min)/(Signal max-Signal min)]×100. Subsequently, the dose-response curve was fitted by nonlinear curve fitting of log concentration versus inhibition rate using Fit Modela (205) in XLfit to give the IC50 value of the compound for inhibition of protein activity.

[1] = kinase 8 nM, ATP 80 µM, 37°C 90 minutes, read-out: IRAK4 HTRF IC50

SMILES | IC50 [1] | IC50
NC(=O)c1nn(-c2ccc(C(=O)N3CCNCC3)cc2)cc1NC(=O)c1cccc(C(F)(F)F)n1 [Compound A16] | < 100 nM | –
NC(=O)c1nn(-c2ccc(C(=O)O)c(F)c2)cc1NC(=O)c1cccc(C(F)(F)F)n1 [Compound A17] | 100 to 1000 nM | –
NC(=O)c1nn(-c2ccc(CO)cc2)cc1NC(=O)c1cccc(C(F)(F)F)n1 [Compound A18] | 100 to 1000 nM | –
COCc1ccc(-n2cc(NC(=O)c3cccc(C(F)(F)F)n3)c(C(N)=O)n2)cc1 [Compound A19] | < 100 nM | –
NCc1ccc(-n2cc(NC(=O)c3cccc(C(F)(F)F)n3)c(C(N)=O)n2)cc1 [Compound A20] | < 100 nM | –
CNCc1ccc(-n2cc(NC(=O)c3cccc(C(F)(F)F)n3)c(C(N)=O)n2)cc1 [Compound A21] | < 100 nM | –
CN(C)Cc1ccc(-n2cc(NC(=O)c3cccc(C(F)(F)F)n3)c(C(N)=O)n2)cc1 [Compound A22] | < 100 nM | –
CC(=O)NCc1ccc(-n2cc(NC(=O)c3cccc(C(F)(F)F)n3)c(C(N)=O)n2)cc1 [Compound A23] | < 100 nM | –
CC(=O)N(C)Cc1ccc(-n2cc(NC(=O)c3cccc(C(F)(F)F)n3)c(C(N)=O)n2)cc1 [Compound A24] | < 100 nM | –
NC(=O)c1nn(-c2ccc(N3CCNCC3)cc2)cc1NC(=O)c1cccc(C(F)(F)F)n1 [Compound A25] | < 100 nM | –
CN1CCN(c2ccc(-n3cc(NC(=O)c4cccc(C(F)(F)F)n4)c(C(N)=O)n3)cc2)CC1 [Compound A26] | < 100 nM | –
CC(=O)N1CCN(c2ccc(-n3cc(NC(=O)c4cccc(C(F)(F)F)n4)c(C(N)=O)n3)cc2)CC1 [Compound A27] | < 100 nM | –
NC(=O)c1nn(-c2ccc(N3CCN(C(=O)c4ccccc4)CC3)cc2)cc1NC(=O)c1cccc(C(F)(F)F)n1 [Compound A28] | < 100 nM | –
NC(=O)c1nn(-c2cccnc2)cc1NC(=O)c1cccc(C(F)(F)F)n1 [Compound A29] | 100 to 1000 nM | –
NC(=O)c1nn(-c2ccc(C(=O)O)nc2)cc1NC(=O)c1cccc(C(F)(F)F)n1 [Compound A31] | – | 100 to 1000 nM
NC(=O)c1nn(C2CC(N)C2)cc1NC(=O)c1cccc(C(F)(F)F)n1 (stereo not drawn) [Compound A32] | < 100 nM | –
NC(=O)c1nn(C2CNC2)cc1NC(=O)c1cccc(C(F)(F)F)n1 [Compound A33] | 100 to 1000 nM | –
NC(=O)c1nn(C2COC3(CCNCC3)C2)cc1NC(=O)c1cccc(C(F)(F)F)n1 (stereo not drawn) [Compound A35] | 100 to 1000 nM | –
NC(=O)c1nn(C2CCC(N)CC2)cc1NC(=O)c1cccc(C(F)(F)F)n1 (stereo not drawn) [Compound A36] | 100 to 1000 nM | –
COc1nn(-c2ccc(N3CCNCC3)cc2)cc1NC(=O)c1cccc(C(F)(F)F)n1 [Compound A39] | – | 100 to 1000 nM
O=C(Nc1cn(-c2ccc(N3CCNCC3)cc2)nc1C(F)F)c1cccc(C(F)(F)F)n1 [Compound A42] | < 100 nM | –
CNC1CC(c2nn(-c3ccccc3)cc2NC(=O)c2cccc(C(F)(F)F)n2)C1 (stereo not drawn) [Compound A44, N-(3-(3-(Methylamino)cyclobutyl)-1-phenyl-1H-pyrazol-4-yl)-6-(trifluoromethyl)picolinamide] | > 1000 nM | –
NC(=O)c1nn(-c2cncnc2)cc1NC(=O)c1cccc(C(F)(F)F)n1 [Compound A45] | 100 to 1000 nM | –
CC(C)(O)c1nn(-c2ccccc2)cc1NC(=O)c1cccc(C(F)(F)F)n1 [Compound A46, N-(3-(2-hydroxypropan-2-yl)-1-phenyl-1H-pyrazol-4-yl)-6-(trifluoromethyl)picolinamide] | 100 to 1000 nM | –
NC(=O)c1cn(-c2ccccc2)cc1NC(=O)c1cccc(C(F)(F)F)n1 [Compound A47] | < 100 nM | –
NC(=O)c1[nH]c(-c2ccccc2)cc1NC(=O)c1cccc(C(F)(F)F)n1 [Compound A48] | < 100 nM | –

SMILES | IC50 [1] | IC50
NC(=O)c1sc(-c2ccccc2)cc1NC(=O)c1cccc(C(F)(F)F)n1 [Compound A50] | > 1000 nM | –
NC(=O)c1cc(-c2ccccc2)sc1NC(=O)c1cccc(C(F)(F)F)n1 [Compound A51] | > 1000 nM | –
NC(=O)c1cc(-c2ccccc2)oc1NC(=O)c1cccc(C(F)(F)F)n1 [Compound A53] | > 1000 nM | –
NC(=O)c1nc(-c2ccccc2)[nH]c1NC(=O)c1cccc(C(F)(F)F)n1 [Compound A54] | > 1000 nM | –
NC(=O)c1sc(-c2ccccc2)nc1NC(=O)c1cccc(C(F)(F)F)n1 [Compound A55, 2-Phenyl-4-(6-(trifluoromethyl)picolinamido)thiazole-5-carboxamide] | > 1000 nM | –
NC(=O)c1nc(-c2ccccc2)sc1NC(=O)c1cccc(C(F)(F)F)n1 [Compound A56, 2-Phenyl-5-(6-(trifluoromethyl)picolinamido)thiazole-4-carboxamide] | > 1000 nM | –
NC(=O)c1oc(-c2ccccc2)nc1NC(=O)c1cccc(C(F)(F)F)n1 [Compound A57, 2-Phenyl-4-(6-(trifluoromethyl)picolinamido)oxazole-5-carboxamide] | > 1000 nM | –
NC(=O)c1nc(-c2ccccc2)oc1NC(=O)c1cccc(C(F)(F)F)n1 [Compound A58, 2-Phenyl-5-(6-(trifluoromethyl)picolinamido)oxazole-4-carboxamide] | > 1000 nM | –
NS(=O)(=O)c1cn(-c2ccccc2)nc1NC(=O)c1cccc(C(F)(F)F)n1 [Compound A59, N-(1-phenyl-4-sulfamoyl-1H-pyrazol-3-yl)-6-(trifluoromethyl)picolinamide] | > 1000 nM | –
CS(=N)(=O)c1cn(-c2ccccc2)nc1NC(=O)c1cccc(C(F)(F)F)n1 (stereo not drawn) [Compound A60] | – | > 1000 nM
CC(C)(O)c1cn(-c2ccccc2)nc1NC(=O)c1cccc(C(F)(F)F)n1 [Compound A61, N-(4-(2-hydroxypropan-2-yl)-1-phenyl-1H-pyrazol-3-yl)-6-(trifluoromethyl)picolinamide] | > 1000 nM | –
NS(=O)(=O)c1nn(-c2ccccc2)cc1NC(=O)c1cccc(C(F)(F)F)n1 [Compound A62, N-(1-phenyl-3-sulfamoyl-1H-pyrazol-4-yl)-6-(trifluoromethyl)picolinamide] | 100 to 1000 nM | –
N#Cc1nn(-c2ccccc2)cc1NC(=O)c1cccc(C(F)(F)F)n1 [Compound A64, N-(3-cyano-1-phenyl-1H-pyrazol-4-yl)-6-(trifluoromethyl)picolinamide] | > 1000 nM | –
O=C(Nc1cn(-c2ccccc2)nc1C1CC(O)C1)c1cccc(C(F)(F)F)n1 (stereo not drawn) [Compound A65, N-(3-(3-hydroxycyclobutyl)-1-phenyl-1H-pyrazol-4-yl)-6-(trifluoromethyl)picolinamide] | > 1000 nM | –
O=C(Nc1cn(-c2ccccc2)nc1C1CC1)c1cccc(C(F)(F)F)n1 [Compound A71, N-(3-cyclopropyl-1-phenyl-1H-pyrazol-4-yl)-6-(trifluoromethyl)picolinamide] | > 1000 nM | –
O=C(Nc1cn(-c2ccccc2)nc1C1CCC1)c1cccc(C(F)(F)F)n1 [Compound A72, N-(3-cyclobutyl-1-phenyl-1H-pyrazol-4-yl)-6-(trifluoromethyl)picolinamide] | > 1000 nM | –
O=C(Nc1cn(-c2ccccc2)nc1CO)c1cccc(C(F)(F)F)n1 [Compound A74, N-(3-(hydroxymethyl)-1-phenyl-1H-pyrazol-4-yl)-6-(trifluoromethyl)picolinamide] | 100 to 1000 nM | –
CC(O)c1nn(-c2ccccc2)cc1NC(=O)c1cccc(C(F)(F)F)n1 (stereo not drawn) [Compound A75, N-(3-(1-hydroxyethyl)-1-phenyl-1H-pyrazol-4-yl)-6-(trifluoromethyl)picolinamide] | 100 to 1000 nM | –
O=C(Nc1cn(-c2ccccc2)nc1C(=O)NC1CC1)c1cccc(C(F)(F)F)n1 [Compound A86, N-(3-(cyclopropylcarbamoyl)-1-phenyl-1H-pyrazol-4-yl)-6-(trifluoromethyl)picolinamide] | 100 to 1000 nM | –
NC(=O)c1nn(-c2ccccc2)cc1NC(=O)c1cccc(-c2cc[nH]n2)n1 [Compound A88] | < 100 nM | –
NC(=O)c1nn(-c2ccccc2)cc1NC(=O)c1cccc(-c2cn[nH]c2)n1 [Compound A89] | < 100 nM | –
NC(=O)c1nn(-c2ccccc2)cc1NC(=O)c1cccc(-c2c[nH]cn2)n1 [Compound A90] | < 100 nM | –
NC(=O)c1nn(-c2ccccc2)cc1NC(=O)c1cccc(-c2cc[nH]c2)n1 [Compound A91] | 100 to 1000 nM | –
NS(=O)(=O)c1nn(-c2ccccc2)cc1NC(=O)c1cccc(-c2cc[nH]n2)n1 [Compound A92, N-(1-phenyl-3-sulfamoyl-1H-pyrazol-4-yl)-6-(1H-pyrazol-3-yl)picolinamide] | < 100 nM | –
NS(=O)(=O)c1nn(-c2ccccc2)cc1NC(=O)c1cccc(-c2cn[nH]c2)n1 [Compound A93] | < 100 nM | –
